Data on seven compounds can be found in ChEMBL document CHEMBL2010748, “Structure-Activity Relationship Studies of HIV-1 Integrase Oligonucleotide Inhibitors” (ACS Med Chem Lett, 2011).

Chain of Human immunodeficiency virus type 1 integrase (Q7ZJM1 whole entry): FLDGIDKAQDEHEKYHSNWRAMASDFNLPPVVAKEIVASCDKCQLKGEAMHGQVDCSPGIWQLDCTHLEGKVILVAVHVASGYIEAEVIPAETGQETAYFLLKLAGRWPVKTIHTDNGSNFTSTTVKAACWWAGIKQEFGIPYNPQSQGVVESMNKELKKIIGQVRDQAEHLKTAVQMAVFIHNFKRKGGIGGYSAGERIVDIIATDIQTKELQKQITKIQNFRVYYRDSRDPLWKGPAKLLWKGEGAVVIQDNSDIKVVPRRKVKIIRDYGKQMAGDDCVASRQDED

This experiment has as its target Human immunodeficiency virus type 1 integrase (Human immunodeficiency virus 1, UniProt Q7ZJM1). The experiment in a line: Inhibition of Human immunodeficiency virus 1 integrase 3'-processing activity expressed in Escherichia coli using 21-mer DNA and Mg2+ after 2 hrs by polyacrylamide gel electrophoresis.
The IC50 is the point on the concentration scale where inhibition reaches its midpoint. A low value points to greater potency. For the compound `Cc1cn([C@H]2C[C@H](OP(=O)(O)OCCCOP(=O)(O)OCCCOP(=O)(O)OCCCOP(=O)(O)OCCCOP(=O)(O)OCCCOP(=O)(O)OCCCOP(=O)(O)OC[C@H]3O[C@@H](n4cc(C)c(=O)[nH]c4=O)C[C@@H]3O)[C@@H](COP(=O)(O)O[C@H]3C[C@H](n4cc(C)c(=O)[nH]c4=O)O[C@@H]3COP(=O)(O)O[C@H]3C[C@H](n4cnc5c(=O)[nH]c(N)nc54)O[C@@H]3COP(=O)(O)O[C@H]3C[C@H](n4cnc5c(=O)[nH]c(N)nc54)O[C@@H]3COP(=O)(O)OCCCCCCNC(=O)c3cc(Cl)c(C(=O)O)c(-c4c5cc(Cl)c(=O)c(Cl)c-5oc5c(Cl)c(O)c(Cl)cc45)c3Cl)O2)c(=O)[nH]c1=O`, the half-inhibitory concentration (IC50) came to 310 nM. The result for `Cc1cn([C@H]2C[C@H](OP(=O)(O)OC[C@H]3O[C@@H](n4cc(C)c(=O)[nH]c4=O)C[C@@H]3OP(=O)(O)OC[C@H]3O[C@@H](n4cc(C)c(=O)[nH]c4=O)C[C@@H]3OP(=O)(O)OC[C@H]3O[C@@H](n4cnc5c(=O)[nH]c(N)nc54)C[C@@H]3OP(=O)(O)OC[C@H]3O[C@@H](n4cc(C)c(=O)[nH]c4=O)C[C@@H]3OP(=O)(O)OC[C@H]3O[C@@H](n4cnc5c(=O)[nH]c(N)nc54)C[C@@H]3OP(=O)(O)OC[C@H]3O[C@@H](n4cc(C)c(=O)[nH]c4=O)C[C@@H]3OP(=O)(O)OCCCCCCNC(=S)Nc3ccc(-c4c5cc(Br)c(=O)c(Br)c-5oc5c(Br)c(O)c(Br)cc45)c(C(=O)O)c3)[C@@H](COP(=O)(O)O[C@H]3C[C@H](n4cc(C)c(=O)[nH]c4=O)O[C@@H]3COP(=O)(O)O[C@H]3C[C@H](n4cc(C)c(=O)[nH]c4=O)O[C@@H]3COP(=O)(O)O[C@H]3C[C@H](n4cnc5c(=O)[nH]c(N)nc54)O[C@@H]3COP(=O)(O)O[C@H]3C[C@H](n4cnc5c(=O)[nH]c(N)nc54)O[C@@H]3CO)O2)c(=O)[nH]c1=O` reads 50 nM; that for `CO[C@@H]1[C@H](O)[C@@H](COP(=O)(S)O[C@H]2[C@@H](OC)[C@H](n3cnc4c(=O)[nH]c(N)nc43)O[C@@H]2COP(=O)(S)O[C@H]2[C@@H](OC)[C@H](n3ccc(=O)[nH]c3=O)O[C@@H]2COP(=O)(S)O[C@H]2[C@@H](OC)[C@H](n3cnc4c(=O)[nH]c(N)nc43)O[C@@H]2COP(=O)(S)O[C@H]2[C@@H](OC)[C@H](n3ccc(=O)[nH]c3=O)O[C@@H]2COP(=O)(S)O[C@H]2[C@@H](OC)[C@H](n3ccc(=O)[nH]c3=O)O[C@@H]2COP(=O)(S)O[C@H]2[C@@H](OC)[C@H](n3ccc(=O)[nH]c3=O)O[C@@H]2COP(=O)(S)O[C@H]2[C@@H](OC)[C@H](n3ccc(=O)[nH]c3=O)O[C@@H]2COP(=O)(S)O[C@H]2[C@@H](OC)[C@H](n3ccc(=O)[nH]c3=O)O[C@@H]2COP(=O)(S)O[C@H]2[C@@H](OC)[C@H](n3cnc4c(=O)[nH]c(N)nc43)O[C@@H]2COP(=O)(S)O[C@H]2[C@@H](OC)[C@H](n3cnc4c(=O)[nH]c(N)nc43)O[C@@H]2COP(=O)(S)OCCCCCCNC(=O)c2cc(Cl)c(C(=O)O)c(-c3c4cc(Cl)c(=O)c(Cl)c-4oc4c(Cl)c(O)c(Cl)cc34)c2Cl)O[C@H]1n1ccc(=O)[nH]c1=O` (some centres not stated), 19 nM.

`Cc1cn([C@H]2C[C@H](OP(=O)(O)OC[C@H]3O[C@@H](n4cc(C)c(=O)[nH]c4=O)C[C@@H]3OP(=O)(O)OC[C@H]3O[C@@H](n4cc(C)c(=O)[nH]c4=O)C[C@@H]3OP(=O)(S)OC[C@H]3O[C@@H](n4cnc5c(=O)[nH]c(N)nc54)C[C@@H]3OP(=O)(O)OC[C@H]3O[C@@H](n4cc(C)c(=O)[nH]c4=O)C[C@@H]3OP(=O)(S)OC[C@H]3O[C@@H](n4cnc5c(=O)[nH]c(N)nc54)C[C@@H]3OP(=O)(O)OC[C@H]3O[C@@H](n4cc(C)c(=O)[nH]c4=O)C[C@@H]3OP(=O)(S)OCCCCCCNC(=S)Nc3ccc(-c4c5cc(Br)c(=O)c(Br)c-5oc5c(Br)c(O)c(Br)cc45)c(C(=O)O)c3)[C@@H](COP(=O)(O)O[C@H]3C[C@H](n4cc(C)c(=O)[nH]c4=O)O[C@@H]3COP(=O)(O)O[C@H]3C[C@H](n4cc(C)c(=O)[nH]c4=O)O[C@@H]3COP(=O)(O)O[C@H]3C[C@H](n4cnc5c(=O)[nH]c(N)nc54)O[C@@H]3COP(=O)(O)O[C@H]3C[C@H](n4cnc5c(=O)[nH]c(N)nc54)O[C@@H]3CO)O2)c(=O)[nH]c1=O` (some centres not stated) had an IC50 of 20 nM. Under `CCCCCCCC/C=C\CCCCCCCC(=O)NCCCOCC(O)COP(=O)(O)O[C@@H]1C[C@@H](COP(=O)(O)O[C@H]2C[C@H](n3cc(C)c(=O)[nH]c3=O)O[C@@H]2COP(=O)(O)O[C@H]2C[C@H](n3cnc4c(=O)[nH]c(N)nc43)O[C@@H]2COP(=O)(O)O[C@H]2C[C@H](n3cc(C)c(=O)[nH]c3=O)O[C@@H]2COP(=O)(O)O[C@H]2C[C@H](n3cnc4c(=O)[nH]c(N)nc43)O[C@@H]2COP(=O)(O)O[C@H]2C[C@H](n3cc(C)c(=O)[nH]c3=O)O[C@@H]2COP(=O)(O)O[C@H]2C[C@H](n3cc(C)c(=O)[nH]c3=O)O[C@@H]2COP(=O)(O)O[C@H]2C[C@H](n3cc(C)c(=O)[nH]c3=O)O[C@@H]2COP(=O)(O)O[C@H]2C[C@H](n3cc(C)c(=O)[nH]c3=O)O[C@@H]2COP(=O)(O)O[C@H]2C[C@H](n3cc(C)c(=O)[nH]c3=O)O[C@@H]2COP(=O)(O)O[C@H]2C[C@H](n3cnc4c(=O)[nH]c(N)nc43)O[C@@H]2COP(=O)(O)O[C@H]2C[C@H](n3cnc4c(=O)[nH]c(N)nc43)O[C@@H]2CO)N(C(=O)CCCCCNC(=O)c2ccc(C(=O)O)c(-c3c4ccc(=O)cc-4oc4cc(O)ccc34)c2)C1` (some centres not stated) stands 23 nM. Under `COc1cc2c(-c3cc(C(=O)NCCCCCCOP(=O)(O)OC[C@H]4O[C@@H](n5cnc6c(=O)[nH]c(N)nc65)C[C@@H]4OP(=O)(O)OC[C@H]4O[C@@H](n5cnc6c(=O)[nH]c(N)nc65)C[C@@H]4OP(=O)(O)OC[C@H]4O[C@@H](n5cc(C)c(=O)[nH]c5=O)C[C@@H]4OP(=O)(O)OC[C@H]4O[C@@H](n5cc(C)c(=O)[nH]c5=O)C[C@@H]4OP(=O)(O)OC[C@H]4O[C@@H](n5cc(C)c(=O)[nH]c5=O)C[C@@H]4OP(=O)(O)OC[C@H]4O[C@@H](n5cc(C)c(=O)[nH]c5=O)C[C@@H]4OP(=O)(O)OC[C@H]4O[C@@H](n5cc(C)c(=O)[nH]c5=O)C[C@@H]4OP(=O)(O)OC[C@H]4O[C@@H](n5cnc6c(=O)[nH]c(N)nc65)C[C@@H]4OP(=O)(O)OC[C@H]4O[C@@H](n5cc(C)c(=O)[nH]c5=O)C[C@@H]4OP(=O)(O)OC[C@H]4O[C@@H](n5cnc6c(=O)[nH]c(N)nc65)C[C@@H]4OP(=O)(O)OC[C@H]4O[C@@H](n5cc(C)c(=O)[nH]c5=O)C[C@@H]4O)ccc3C(=O)O)c3cc(OC)c(=O)c(Cl)c-3oc2c(Cl)c1O` stands 310 nM; under `Cc1cn([C@H]2C[C@H](OP(=O)(O)OC[C@H]3O[C@@H](n4cc(C)c(=O)[nH]c4=O)C[C@@H]3OP(=O)(O)OC[C@H]3O[C@@H](n4cc(C)c(=O)[nH]c4=O)C[C@@H]3OP(=O)(O)OC[C@H]3O[C@@H](n4cnc5c(=O)[nH]c(N)nc54)C[C@@H]3OP(=O)(O)OC[C@H]3O[C@@H](n4cc(C)c(=O)[nH]c4=O)C[C@@H]3OP(=O)(O)OC[C@H]3O[C@@H](n4cnc5c(=O)[nH]c(N)nc54)C[C@@H]3OP(=O)(O)OC[C@H]3O[C@@H](n4cc(C)c(=O)[nH]c4=O)C[C@@H]3O)[C@@H](COP(=O)(O)O[C@H]3C[C@H](n4cc(C)c(=O)[nH]c4=O)O[C@@H]3COP(=O)(O)O[C@H]3C[C@H](n4cc(C)c(=O)[nH]c4=O)O[C@@H]3COP(=O)(O)O[C@H]3C[C@H](n4cnc5c(=O)[nH]c(N)nc54)O[C@@H]3COP(=O)(O)O[C@H]3C[C@H](n4cnc5c(=O)[nH]c(N)nc54)O[C@@H]3COP(=O)(O)OCCCCCCNC(=O)c3cc(Cl)c(C(=O)O)c(-c4c5cc(Cl)c(=O)c(Cl)c-5oc5c(Cl)c(O)c(Cl)cc45)c3Cl)O2)c(=O)[nH]c1=O`, 55 nM.
